In patent US11660310B2, “Low dose combination CDA substrate drug/cedazuridine with extended administration” (Otsuka Pharmaceutical Co., Ltd., priority 2018, dated 2023):

Legend:
[1] = test system: sickle cell disease model; conditions: sickle cell disease model in baboons; Am. J. Hematol. 1985; cited from earlier work
[2] = clinical; conditions: human, in vivo, iv, 20 mg/m2, 5-Days total (AUClast) IV

AUC(0-t) [2] [ng·h/mL]	Compound	effect on the potency of decitabine [1]
	O=C1NC(O)CCN1[C@@H]1O[C@H](CO)[C@@H](O)[C@H]1O (some centres unmarked) [Tetrahydrouridine]	improve the potency of decitabine
852	Nc1ncn([C@H]2C[C@H](O)[C@@H](CO)O2)c(=O)n1 [decitabine, 5-aza-2′-deoxycytidine]	
